Measured values reported in PubChem BioAssay AID248 (DTP/NCI, 2004).
Several values for one entry are separate records, joined by “and”; a condition that tells them apart may be missing. Identical values can stand only once. Toxic doses and inconclusive results are not listed.

Test system: L1210 leukemia ip in BDF1 mice, survival T/C
Experiment: NCI In Vivo Anticancer Drug Screen. Data for tumor model L1210 Leukemia (intraperitoneal) in B6D2F1 (BDF1) mice
Details: endpoint: mean survival time, higher = longer survival
Outline: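 Value reflects the ratio of survival in compound-treated mice to survival in vehicle-treated controls, with both groups carrying the same transplanted tumor.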

[1] = dose: 100.0 mg/kg/injection, schedule: Q04DX003 (ip), vehicle: saline
[2] = dose: 200.0 mg/kg/injection, schedule: Q04DX003 (ip), vehicle: saline
[3] = dose: 400.0 mg/kg/injection, schedule: Q04DX003 (ip), vehicle: saline
[4] = dose: 100.0 mg/kg/injection, schedule: Q01DX009 (ip), vehicle: Klucel (hydroxypropylcellulose) (HPC)
[5] = dose: 100.0 mg/kg/injection, schedule: Q04DX003 (ip), vehicle: Klucel (hydroxypropylcellulose) (HPC)
[6] = dose: 200.0 mg/kg/injection, schedule: Q04DX003 (ip), vehicle: Klucel (hydroxypropylcellulose) (HPC)
[7] = dose: 400.0 mg/kg/injection, schedule: Q04DX003 (ip), vehicle: Klucel (hydroxypropylcellulose) (HPC)
[8] = dose: 200.0 mg/kg/injection, schedule: Q01DX009 (ip), vehicle: Klucel (hydroxypropylcellulose) (HPC)
[9] = dose: 400.0 mg/kg/injection, schedule: Q01DX009 (ip), vehicle: Klucel (hydroxypropylcellulose) (HPC)

`CCC1(c2ccccc2)CN(C)C1=O` (centres undefined) was tested, and the T/C (dose: 25.0 mg/kg/injection, schedule: Q01DX009 (ip), vehicle: saline) was 103 % of control, the T/C (dose: 25.0 mg/kg/injection, schedule: Q04DX003 (ip), vehicle: saline) was 92 % of control and the T/C (dose: 50.0 mg/kg/injection, schedule: Q01DX009 (ip), vehicle: saline) was 106 % of control. For the same compound, the T/C (dose: 50.0 mg/kg/injection, schedule: Q04DX003 (ip), vehicle: saline) was 97 % of control, the T/C (dose: 100.0 mg/kg/injection, schedule: Q01DX009 (ip), vehicle: saline) was 105 % of control and the T/C [1] was 97 % of control. The T/C (dose: 200.0 mg/kg/injection, schedule: Q01DX009 (ip), vehicle: saline) was 102 % of control, the T/C [2] was 95 % of control and the T/C (dose: 400.0 mg/kg/injection, schedule: Q01DX009 (ip), vehicle: saline) was 100 % of control. For the same compound, the T/C [3] was 92 % of control.
`Cc1ccc(N)c2cccnc12` was tested, and the T/C [4] was 93 % of control.
For `Nc1nnnn1CC(Br)CBr` (centres undefined), the T/C (dose: 100.0 mg/kg/injection, schedule: Q04DX002 (ip), vehicle: saline) was 104 % of control, the T/C (dose: 200.0 mg/kg/injection, schedule: Q04DX002 (ip), vehicle: saline) was 101 % of control and the T/C (dose: 400.0 mg/kg/injection, schedule: Q04DX002 (ip), vehicle: saline) was 90 % of control.
With `O=[N+]([O-])c1ccc(N/N=C(\Oc2ccccc2)c2ccc([N+](=O)[O-])cc2)cc1` the T/C (dose: 100.0 mg/kg/injection, schedule: Q04DX003 (ip), vehicle: saline with Tween-80) was 94 % of control and the T/C (dose: 200.0 mg/kg/injection, schedule: Q04DX003 (ip), vehicle: saline with Tween-80) was 90 % of control.
`O=[N+]([O-])c1ccc(N/N=C2\C3CC(c4ccccc4)C2C(c2ccccc2)=C3c2ccccc2)c([N+](=O)[O-])c1` (centres undefined) was tested, and the T/C (dose: 12.5 mg/kg/injection, schedule: Q01DX009 (ip), vehicle: saline with Tween-80) was 91 % of control, the T/C (dose: 25.0 mg/kg/injection, schedule: Q01DX009 (ip), vehicle: saline with Tween-80) was 88 % of control and the T/C (dose: 50.0 mg/kg/injection, schedule: Q01DX009 (ip), vehicle: saline with Tween-80) was 96 % of control. For the same compound, the T/C (dose: 200.0 mg/kg/injection, schedule: Q01DX009 (ip), vehicle: saline with Tween-80) was 89 % of control.
`Cc1ccccc1N=Cc1cccc([N+](=O)[O-])c1` was tested, and the T/C (dose: 100.0 mg/kg/injection, schedule: Q01DX001 (ip), vehicle: Klucel (hydroxypropylcellulose) (HPC)) was 107 % of control, the T/C [5] was 98 % of control and the T/C (dose: 200.0 mg/kg/injection, schedule: Q01DX001 (ip), vehicle: Klucel (hydroxypropylcellulose) (HPC)) was 107 % of control. The T/C [6] was 101 % of control, the T/C (dose: 400.0 mg/kg/injection, schedule: Q01DX001 (ip), vehicle: Klucel (hydroxypropylcellulose) (HPC)) was 112 % of control and the T/C [7] was 98 % of control.
`C=CCON(C)c1ccccc1` was tested, and the T/C [1] was 94 % of control, the T/C [2] was 108 % of control and the T/C [3] was 96 % of control.
`Nc1ccc(/C=C/c2ccncc2)cc1` was tested, and the T/C [4] was 92 % of control, the T/C [5] was 101 % of control and the T/C [8] was 92 % of control. For the same compound, the T/C [6] was 104 % of control, the T/C [9] was 102 % of control and the T/C [7] was 96 % of control.
With `Cc1cc(N(CCOS(C)(=O)=O)CCOS(C)(=O)=O)ccc1C=Nc1cc(Br)c(O)c(Br)c1` the T/C (dose: 25.0 mg/kg/injection, schedule: Q04DX003 (ip), vehicle: Klucel (hydroxypropylcellulose) (HPC)) was 107 % of control and 111 % of control, the T/C (dose: 50.0 mg/kg/injection, schedule: Q04DX003 (ip), vehicle: Klucel (hydroxypropylcellulose) (HPC)) was 109 % of control and the T/C (dose: 75.0 mg/kg/injection, schedule: Q04DX003 (ip), vehicle: Klucel (hydroxypropylcellulose) (HPC)) was 175 % of control.
With `Cc1nccnc1Sc1ccc2ccccc2c1` the T/C [4] was 95 % of control, the T/C [8] was 92 % of control and the T/C [9] was 90 % of control.
With `CC(=O)OC1CCCCC1c1cccc(C)c1` (centres undefined) the T/C (dose: 100.0 mg/kg/injection, schedule: Q04DX003 (ip), vehicle: acetone) was 110 % of control, the T/C (dose: 200.0 mg/kg/injection, schedule: Q04DX003 (ip), vehicle: acetone) was 102 % of control and the T/C (dose: 400.0 mg/kg/injection, schedule: Q04DX003 (ip), vehicle: acetone) was 98 % of control.
